Assay results published in patent US20220202792A1, “METHODS AND COMPOSITIONS FOR TREATING CHRONIC INFLAMMATORY INJURY, METAPLASIA, DYSPLASIA AND CANCERS OF EPITHELIAL TISSUES” (University of Houston System, priority 2019, published 2022).

Assays:
[1] = test system: Barrett's stem cells (BE stem cells, Krt7+); assay: High throughput chemical screening and dose response on GFP-labeled stem cells; format: cell-based, human
[2] = test system: Barrett's stem cells and esophageal squamous stem cells xenograft; assay: Mouse xenograft of co-injected esophageal squamous and GFP labeled Barrett's stem cells; format: in vivo, mice
Excerpt: The effect of these chemicals on BE in a xenograft model was further examined. The esophageal squamous stem cells and GFP labeled Barrett's stem cells were mixed and co-injected into the immunodeficient mice. […] Two weeks following the treatment, the xenografts were collected and examined through histology analysis and clonogenic analysis.

[3] = test system: BE, dysplasia and cancer stem cells; assay: 3D (ALI) culture of patient-matched BE, dysplasia and cancer stem cells; format: cell-based, human; settings: combined with Ponatinib
Excerpt: FIG. 5B. Left, Scanned images of top view of BE, dysplasia and cancer stem cells (green) generated ALI structures in the presence of absence of drug combinations.

JMJD2B (KDM4B) = target: T1, JMJD2B (KDM4B) (Homo sapiens, UniProt O94953); settings: demethylase activity in vitro; cited from earlier work
T1 sequence (O94953 1-1096): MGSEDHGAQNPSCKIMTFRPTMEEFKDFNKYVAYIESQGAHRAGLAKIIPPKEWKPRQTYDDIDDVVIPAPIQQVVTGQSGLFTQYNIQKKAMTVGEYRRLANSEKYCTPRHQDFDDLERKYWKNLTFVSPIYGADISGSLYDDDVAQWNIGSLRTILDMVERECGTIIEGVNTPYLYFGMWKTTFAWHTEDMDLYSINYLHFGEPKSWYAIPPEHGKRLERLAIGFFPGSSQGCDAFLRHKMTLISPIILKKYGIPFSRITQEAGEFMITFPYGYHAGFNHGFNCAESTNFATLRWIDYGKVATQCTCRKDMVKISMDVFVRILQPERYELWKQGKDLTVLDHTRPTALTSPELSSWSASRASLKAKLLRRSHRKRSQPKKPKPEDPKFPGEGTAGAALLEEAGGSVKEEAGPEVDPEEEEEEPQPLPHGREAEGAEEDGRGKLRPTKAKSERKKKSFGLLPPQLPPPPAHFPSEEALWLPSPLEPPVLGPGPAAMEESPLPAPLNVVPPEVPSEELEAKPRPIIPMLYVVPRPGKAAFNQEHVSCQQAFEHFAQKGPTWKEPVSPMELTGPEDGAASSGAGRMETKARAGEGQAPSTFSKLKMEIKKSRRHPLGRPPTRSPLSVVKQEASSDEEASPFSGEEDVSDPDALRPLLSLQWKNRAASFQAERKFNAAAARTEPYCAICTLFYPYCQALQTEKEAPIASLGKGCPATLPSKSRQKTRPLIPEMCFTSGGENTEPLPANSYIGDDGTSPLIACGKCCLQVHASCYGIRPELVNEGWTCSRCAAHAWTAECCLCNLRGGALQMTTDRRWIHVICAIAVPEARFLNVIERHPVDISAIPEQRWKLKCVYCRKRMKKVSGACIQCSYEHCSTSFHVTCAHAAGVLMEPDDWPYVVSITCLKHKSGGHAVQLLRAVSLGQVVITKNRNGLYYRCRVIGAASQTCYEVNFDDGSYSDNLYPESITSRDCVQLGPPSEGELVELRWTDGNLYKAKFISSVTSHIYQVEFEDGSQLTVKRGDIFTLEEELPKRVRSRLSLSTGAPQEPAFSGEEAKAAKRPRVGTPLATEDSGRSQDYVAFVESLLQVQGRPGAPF

## Clc1ccc(N/N=C(\c2ccccc2)c2ccccn2)nc1 [JIB04]
[1]; in the background of a fixed concentration of Ponatinib
  differential of dose-response curves, BE stem cells versus normal esophageal stem cells: ~1,000 fold
[1]; screened in the background of 1 μM Ponatinib
  lethality towards Barrett's stem cells: displayed the lethality
[2]; NSG mice, with Ponatinib
  BE stem cells in treated structures (histological analysis): not detected
  Krt5+ ESO structures in treated samples: visibly more robust
[2]; combination with Ponatinib, clonogenic analysis
  clonogenic Barrett's stem cells from xenografts: lack of clonogenic Barrett's stem cells
[2]; combination with Ponatinib, intraperitoneally, two weeks following the treatment
  Barrett's structures in xenografts (histology): total loss
[3]
  eradication of BE, dysplasia and cancer stem cells in 3D (ALI) culture: eradicate
JMJD2B (KDM4B)
  IC50: ~0.44 µM
